For series [1], the system named is PC-3. The series is described as follows: Antiproliferative activity against human PC3 cells at <10 uM after 96 hrs by MTT assay. Format: functional, cell-based.
The test system of series [2] is PC-3. The series is described as follows: Antiproliferative activity against human PC3 cells at >10 to 25 uM after 96 hrs by MTT assay. It is filed as functional, cell-based.
Series [3] concerns MDA-MB-231. The series is described as follows: Antiproliferative activity against human MDA-MB-231 cells at >10 to 25 uM after 96 hrs by MTT assay. Format: functional, cell-based.
For series [4], the system named is BXPC-3. The series is described as follows: Antiproliferative activity against human BxPC3 cells at >10 to 25 uM after 96 hrs by MTT assay. Format: functional, cell-based.
For series [5], the system named is BXPC-3. The experiment in a line: Antiproliferative activity against human BxPC3 cells at <10 uM after 96 hrs by MTT assay. Format: functional, cell-based.
The subject of series [6] is MDA-MB-231. The experiment in a line: Antiproliferative activity against human MDA-MB-231 cells at <10 uM after 96 hrs by MTT assay. It is filed as functional, cell-based.
For series [7], the system named is BXPC-3. The experiment in a line: Antiproliferative activity against human BxPC3 cells at 1 to 50 uM after 96 hrs by MTT assay. Format: functional, cell-based.
Series [8] relates to 518A2. The series is described as follows: Induction of reactive oxygen species generation in human 518A2 cells at 0.5 uM after 24 hrs by NBT assay relative to control. It is filed as functional.
The test system of series [9] is HeLa. The series is described as follows: Cytotoxicity against human HeLa cells assessed as effect on cytoskeleton at 10 uM after 1 to 9 hrs by DAPI staining-based fluorescence microscopic method. Format: cell-based.
The subject of series [10] is 518A2. The series is described as follows: Induction of reactive oxygen species generation in human 518A2 cells at 0.1 uM after 24 hrs by NBT assay relative to control. Format: functional.
Series [11] deals with 518A2. The experiment in a line: Antiproliferative activity against human 518A2 cells after 72 hrs by MTT assay. It is filed as functional, cell-based. The settings on record: 518A2, 72 h.
The subject of another series is KB-V1. The series is described as follows: Antiproliferative activity against vinblastine-resistant human KBV1 cells after 72 hrs by MTT assay. It is filed as functional, cell-based. The settings on record: KB-V1, 72 h.
The subject of series [12] is Trypanosoma brucei brucei. The experiment in a line: Antitrypanosomal activity against bloodstream trypomastigote form of Trypanosoma brucei brucei 65.3 assessed as decrease in parasite motility at 1 uM after 0.5 to 24 hrs by DAPI staining-based fluorescence microscopic method relative to control. Format: functional.
Series [13] relates to Trypanosoma brucei brucei. The experiment in a line: Antitrypanosomal activity against bloodstream trypomastigote form of Trypanosoma brucei brucei 65.3 assessed as deformation of microtubule cytoskeleton at 1 uM after 0.5 to 24 hrs by DAPI staining-based fluorescence microscopic method. It is filed as functional.
Series [14] relates to PC-3. The experiment in a line: Antiproliferative activity against human PC3 cells at 1 to 50 uM after 96 hrs by MTT assay. Format: functional, cell-based.
Series [15] has as its system Trypanosoma brucei brucei. The experiment in a line: Antitrypanosomal activity against bloodstream trypomastigote form of Trypanosoma brucei brucei 65.3 […] after 72 hrs by Alamar Blue assay. It is filed as functional, cell-based. The settings on record: Trypanosoma brucei, 65.3, 72 h.
In another series the test system is HCT-116. The experiment in a line: Antiproliferative activity against human HCT116 cells after 72 hrs by MTT assay. The settings on record: HCT-116, 72 h. Format: functional, cell-based.
The subject of series [16] is HeLa. The series is described as follows: Cytotoxicity against human HeLa cells assessed as effect on cell viability at 10 uM after 1 to 9 hrs by DAPI staining-based fluorescence microscopic method.
For series [17], the system named is MDA-MB-231. The series is described as follows: Antiproliferative activity against human MDA-MB-231 cells at 1 to 50 uM after 96 hrs by MTT assay. It is filed as functional, cell-based.
The next series relates to PANC-1. The series is described as follows: Antiproliferative activity against human PANC1 cells after 72 hrs by MTT assay. It is filed as functional, cell-based. The settings on record: PANC-1, 72 h.
For series [18], the system named is BXPC-3. The experiment in a line: Antiproliferative activity against human BxPC3 cells at <25 uM after 96 hrs by MTT assay. Format: functional, cell-based.
Series [19] relates to MDA-MB-231. The series is described as follows: Antiproliferative activity against human MDA-MB-231 cells at <25 uM after 96 hrs by MTT assay. It is filed as functional, cell-based.
Series [20] deals with PC-3. The series is described as follows: Antiproliferative activity against human PC3 cells at <25 uM after 96 hrs by MTT assay. It is filed as functional, cell-based.
The test system of series [21] is Trypanosoma brucei brucei. The series is described as follows: Antitrypanosomal activity against bloodstream trypomastigote form of Trypanosoma brucei brucei 65.3 assessed as deformation of microtubule cytoskeleton at 10 uM after 3 to 6 hrs by DAPI staining-based fluorescence microscopic method. Format: functional.
The test system of series [22] is Trypanosoma brucei brucei. The series is described as follows: Antitrypanosomal activity against bloodstream trypomastigote form of Trypanosoma brucei brucei 65.3 assessed as cell debris of dead and lysed parasite at 10 uM after 12 to 24 hrs by DAPI staining-based fluorescence microscopic method. It is filed as functional.

The results in this text go back to ChEMBL document CHEMBL4002569, “Improved anticancer and antiparasitic activity of new lawsone Mannich bases” (Eur J Med Chem, 2017).

The source made the active and inactive calls. The rule behind the calls is not given here.

For the compound `CCCCCCCCCCCCCCCCNC(C1=C(O)C(=O)c2ccccc2C1=O)c1ccc(F)c(F)c1` (configuration not stated), the “growth inhibition (GI)” value with PC-3 [1], in the series on BXPC-3 [5] and with MDA-MB-231 [6] was “inactive” each time. For the same compound, the “growth inhibition (GI)” value in the series on PC-3 [2], in the series on MDA-MB-231 [3] and in the series on BXPC-3 [4] was “Active” each time.

Take `CCCCCCCCCCCCNC(C1=C(O)C(=O)c2ccccc2C1=O)c1ccccn1` (configuration not stated): the “growth inhibition (GI)” value with BXPC-3 [7], in the series on PC-3 [14] and in the series with MDA-MB-231 [17] was “Active” throughout. For the same compound, the Activity in the series with 518A2 [8] is given as 70%; with HeLa [9], “Non-Toxic”; in the series with 518A2 [10] it was 50%; in the series with HeLa [16], “Non-Toxic”. Besides, the half-inhibitory concentration (IC50) stood at 2.57 µM in the series on 518A2 [11]; 0.32 µM in the series with KB-V1; 0.646 µM in series [15]; 3.46 µM in the series with HCT-116; 1.79 µM in the series with PANC-1. The outcome in series [12] and in series [13] was Active.

As for `O=C1C(O)=C(C(NCc2ccc(F)c(F)c2)c2ccccn2)C(=O)c2ccccc21` (configuration not stated), the 50% inhibitory concentration (IC50) with 518A2 [11] came to 3.05 µM; with KB-V1, 1.56 µM; with HCT-116, 5.68 µM; in the series with PANC-1, 7.72 µM.

For the compound `CCCCCCCCCCCCNC(C1=C(O)C(=O)c2ccccc2C1=O)c1ccc(F)c(F)c1` (configuration not stated), the “growth inhibition (GI)” value with PC-3 [1], in the series with BXPC-3 [5] and with MDA-MB-231 [6] was “inactive” each time. Further, the “growth inhibition (GI)” value in the series with PC-3 [2], in the series on MDA-MB-231 [3] and in the series on BXPC-3 [4] was “Active” each time.

As for `CCCCCCCNC(C1=C(O)C(=O)c2ccccc2C1=O)c1ccc(O)c(OC)c1` (configuration not stated), the “growth inhibition (GI)” value in the series with BXPC-3 [18], in the series on MDA-MB-231 [19] and with PC-3 [20] was “inactive” each time.

For the compound `CCCCCCCNC(C1=C(O)C(=O)c2ccccc2C1=O)c1ccc(F)c(F)c1` (configuration not stated), the “growth inhibition (GI)” value with PC-3 [1], with BXPC-3 [5] and in the series on MDA-MB-231 [6] was “inactive” throughout. The “growth inhibition (GI)” value with PC-3 [2], in the series on MDA-MB-231 [3] and in the series with BXPC-3 [4] was “Active” each time.

With `O=C1C(O)=C(C(NCc2ccccn2)c2ccccn2)C(=O)c2ccccc21` (configuration not stated), the 50% inhibitory concentration (IC50) in the series on 518A2 [11] was found to be 6.98 µM; in the series on KB-V1, 8.61 µM; in the series on HCT-116 it was 6.77 µM; in the series with PANC-1 it was 17.6 µM.

On to `CCCCCCCCCCCCCCCCNC(C1=C(O)C(=O)c2ccccc2C1=O)c1ccc(O)c(OC)c1` (configuration not stated), for which the “growth inhibition (GI)” value in the series with BXPC-3 [7], with PC-3 [14] and with MDA-MB-231 [17] was “Active” each time. The IC50 in the series with 518A2 [11] was 12.2 µM; in the series with KB-V1, 16.8 µM; in the series with HCT-116, 11.4 µM; in the series with PANC-1, 7.94 µM.

On to `CCCCCCCCCCCCCCNC(C1=C(O)C(=O)c2ccccc2C1=O)c1ccc(F)c(F)c1` (configuration not stated), for which the “growth inhibition (GI)” value in the series with PC-3 [1], in the series on BXPC-3 [5] and with MDA-MB-231 [6] was “inactive” throughout. For the same compound, the “growth inhibition (GI)” value in the series on PC-3 [2], in the series on MDA-MB-231 [3] and in the series on BXPC-3 [4] was “Active” in each case.

In the case of `COc1cc(C(NCc2ccccc2)C2=C(O)C(=O)c3ccccc3C2=O)ccc1O` (configuration not stated), the “growth inhibition (GI)” value in the series with BXPC-3 [18], in the series on MDA-MB-231 [19] and in the series on PC-3 [20] was “inactive” in each case.

With `N=C(N)c1ccc(OCCCCCOc2ccc(C(=N)N)cc2)cc1` [PENTAMIDINE], in series [15], the IC50 was 0.005 µM. In other words, the single-digit nanomolar range.

On to `O=C1C(O)=C(C(NCc2ccccn2)c2ccc(F)c(F)c2)C(=O)c2ccccc21` (configuration not stated), for which the “growth inhibition (GI)” value with PC-3 [1], in the series with BXPC-3 [5] and in the series with MDA-MB-231 [6] was “inactive” each time. Besides, the “growth inhibition (GI)” value with PC-3 [2], in the series on MDA-MB-231 [3] and in the series with BXPC-3 [4] was “Active” each time.

Turning to `CCCCCCCNC(C1=C(O)C(=O)c2ccccc2C1=O)c1ccccn1` (configuration not stated), the Activity is on record as 70% in the series on 518A2 [8] and 50% in the series with 518A2 [10]. The IC50 in the series with 518A2 [11] was found to be 2.58 µM; in the series with KB-V1, 0.41 µM; in series [15] it was 3.73 µM; in the series with HCT-116, 6.39 µM; in the series on PANC-1 it was 6.41 µM. Also, in [21], the result was inactive.

For the compound `COc1cc(C(NCc2ccccn2)C2=C(O)C(=O)c3ccccc3C2=O)ccc1O` (configuration not stated), the “growth inhibition (GI)” value in the series with BXPC-3 [18], in the series with MDA-MB-231 [19] and in the series with PC-3 [20] was “inactive” throughout.

As to `CCCCCCCCCCCCCCNC(C1=C(O)C(=O)c2ccccc2C1=O)c1ccccn1` (configuration not stated), the “growth inhibition (GI)” value in the series with BXPC-3 [7], with PC-3 [14] and in the series with MDA-MB-231 [17] was “Active” in each case. In addition, the Activity in the series on 518A2 [8] is 70%; with HeLa [9], “Non-Toxic”; with 518A2 [10], 50%; with HeLa [16] it was “Non-Toxic”. Besides, the IC50 in the series with 518A2 [11] came to 3.03 µM; with KB-V1, 0.43 µM; in series [15] it was 0.35 µM; in the series with HCT-116, 2.41 µM; with PANC-1 it was 3.93 µM. In addition, the result in series [12], in series [13] and in series [22] was Active.
